Source: BindingDB's records for doi:10.1021/jm970519e (Smithkline Beecham Pharmaceuticals, 1998)

Columns and labels:
[1] = biological target: 5-hydroxytryptamine receptor 2A (Homo sapiens, UniProt P28223)
[2] = biological target: T1, 5-hydroxytryptamine receptor 2C (Homo sapiens, UniProt P28335)
T1 sequence (P28335 whole entry): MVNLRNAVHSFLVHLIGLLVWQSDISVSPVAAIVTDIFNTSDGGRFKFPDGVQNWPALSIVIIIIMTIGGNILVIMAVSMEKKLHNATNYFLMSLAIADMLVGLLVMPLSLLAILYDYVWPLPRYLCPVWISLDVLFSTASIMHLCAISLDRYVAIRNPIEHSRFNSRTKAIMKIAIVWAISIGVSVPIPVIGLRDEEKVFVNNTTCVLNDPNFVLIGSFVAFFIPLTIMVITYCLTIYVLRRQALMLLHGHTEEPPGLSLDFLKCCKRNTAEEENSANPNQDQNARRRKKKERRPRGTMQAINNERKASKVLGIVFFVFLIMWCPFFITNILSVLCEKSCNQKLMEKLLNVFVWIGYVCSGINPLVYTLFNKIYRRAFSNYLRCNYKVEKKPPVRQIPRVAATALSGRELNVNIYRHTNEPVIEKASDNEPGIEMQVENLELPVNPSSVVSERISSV

[3] = biological target: 5-hydroxytryptamine receptor 6 (Homo sapiens, UniProt P50406)
Sequence of 5-hydroxytryptamine receptor 6 (P50406 whole entry): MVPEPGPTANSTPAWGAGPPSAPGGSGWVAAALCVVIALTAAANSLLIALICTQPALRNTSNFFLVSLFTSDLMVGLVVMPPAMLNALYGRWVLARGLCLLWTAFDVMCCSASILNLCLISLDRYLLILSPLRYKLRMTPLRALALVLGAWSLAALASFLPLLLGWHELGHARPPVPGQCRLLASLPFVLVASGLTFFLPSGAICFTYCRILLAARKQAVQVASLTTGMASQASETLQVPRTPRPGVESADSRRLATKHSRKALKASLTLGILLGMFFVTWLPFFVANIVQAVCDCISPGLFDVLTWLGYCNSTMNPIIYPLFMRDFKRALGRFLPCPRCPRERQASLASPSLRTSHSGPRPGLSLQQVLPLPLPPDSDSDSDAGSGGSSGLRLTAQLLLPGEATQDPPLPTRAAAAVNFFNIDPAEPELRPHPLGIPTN

[4] = biological target: 5-hydroxytryptamine receptor 1E (Homo sapiens, UniProt P28566)
Sequence of 5-hydroxytryptamine receptor 1E (P28566 whole entry): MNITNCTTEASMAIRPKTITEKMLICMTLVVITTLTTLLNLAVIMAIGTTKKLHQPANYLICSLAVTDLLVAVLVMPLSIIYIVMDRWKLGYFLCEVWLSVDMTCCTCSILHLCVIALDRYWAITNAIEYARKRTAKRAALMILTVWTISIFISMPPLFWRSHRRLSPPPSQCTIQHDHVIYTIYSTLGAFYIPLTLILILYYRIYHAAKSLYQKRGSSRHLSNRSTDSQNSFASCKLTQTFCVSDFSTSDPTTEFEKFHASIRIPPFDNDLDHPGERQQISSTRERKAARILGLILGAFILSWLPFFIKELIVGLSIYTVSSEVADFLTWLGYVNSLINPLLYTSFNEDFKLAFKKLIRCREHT

[5] = biological target: T2, Alpha-1B adrenergic receptor (Homo sapiens, UniProt P35368)
T2 sequence (P35368 whole entry): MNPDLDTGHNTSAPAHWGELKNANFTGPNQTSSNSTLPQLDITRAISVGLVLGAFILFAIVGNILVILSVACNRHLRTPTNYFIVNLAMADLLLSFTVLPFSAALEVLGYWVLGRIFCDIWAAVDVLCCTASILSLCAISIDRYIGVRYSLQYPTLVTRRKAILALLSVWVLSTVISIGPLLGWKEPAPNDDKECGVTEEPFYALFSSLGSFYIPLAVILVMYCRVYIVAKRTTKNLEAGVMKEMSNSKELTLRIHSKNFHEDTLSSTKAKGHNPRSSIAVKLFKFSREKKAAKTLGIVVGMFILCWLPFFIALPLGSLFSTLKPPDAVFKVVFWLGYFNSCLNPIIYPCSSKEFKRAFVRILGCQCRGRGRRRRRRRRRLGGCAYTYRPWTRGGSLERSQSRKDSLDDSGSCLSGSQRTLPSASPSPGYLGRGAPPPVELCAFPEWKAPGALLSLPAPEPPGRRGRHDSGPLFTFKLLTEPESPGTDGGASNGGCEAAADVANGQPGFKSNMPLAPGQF

Measured: Ki

Sequence of 5-hydroxytryptamine receptor 2A (P28223 whole entry): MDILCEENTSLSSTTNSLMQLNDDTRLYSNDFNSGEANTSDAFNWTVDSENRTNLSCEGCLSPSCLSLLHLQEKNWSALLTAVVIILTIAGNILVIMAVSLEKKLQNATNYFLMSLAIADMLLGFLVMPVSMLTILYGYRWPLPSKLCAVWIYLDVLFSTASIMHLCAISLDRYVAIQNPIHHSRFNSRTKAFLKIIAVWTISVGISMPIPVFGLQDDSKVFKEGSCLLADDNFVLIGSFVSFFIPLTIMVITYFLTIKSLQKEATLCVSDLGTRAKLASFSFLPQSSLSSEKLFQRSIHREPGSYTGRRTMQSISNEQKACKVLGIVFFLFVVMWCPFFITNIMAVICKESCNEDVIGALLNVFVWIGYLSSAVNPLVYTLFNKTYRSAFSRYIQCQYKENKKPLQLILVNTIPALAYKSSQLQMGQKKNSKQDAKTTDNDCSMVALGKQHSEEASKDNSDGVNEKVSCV

Cc1cccc(S(=O)(=O)N(C)[C@H](C)CCN2CCC(C)CC2)c1 [SB-258719]
> 10 µM: all assays above
